Measurements as given in patent US6451736B1, “Substituted aromatic thiocarboxylic acid amides and their use as herbicides” (Bayer Aktiengesellschaft, priority 1994, dated 2002).

Columns and labels:
Format in all cases: in vivo
[1] = system: Abuthilon; experiment: Pre-emergence test/greenhouse; conditions: Table B, after three weeks
Method: (§1) To produce a suitable preparation of active compound, 1 part by weight of active compound is mixed with the stated amount of solvent, the stated amount of emulsifier is added and the concentrate is diluted with water to the desired concentration.
(§2) Seeds of the test plants are sown in normal soil and, after 24 hours, watered with the preparation of active compound. It is expedient to keep constant the amount of water per unit area. The concentration of the active compound in the preparation is of no importance, only the amount of active compound applied per unit area being decisive. After three weeks, the degree of damage to the plants is rated in % damage in comparison to the development of the untreated control. The figures denote:
(§3) 0%=no action (like untreated control)

[2] = system: Wheat; experiment: Pre-emergence test/greenhouse; conditions: Table B, after three weeks
Method: as §1, §2, §3

[3] = system: Chenopodium; experiment: Pre-emergence test/greenhouse; conditions: Table B, after three weeks
Method: as §1, §2, §3

[4] = system: Maize; experiment: Pre-emergence test/greenhouse; conditions: Table B, after three weeks
Method: as §1, §2, §3

[5] = system: Solanum; experiment: Pre-emergence test/greenhouse; conditions: Table B, after three weeks
Method: as §1, §2, §3

[6] = system: Portulaca; experiment: Pre-emergence test/greenhouse; conditions: Table B, after three weeks
Method: as §1, §2, §3

[7] = system: Matricaria; experiment: Pre-emergence test/greenhouse; conditions: Table B, after three weeks
Method: as §1, §2, §3

[8] = system: Amaranthus; experiment: Pre-emergence test/greenhouse; conditions: Table B, after three weeks
Method: as §1, §2, §3

[9] = system: Abuthilon; experiment: Post-emergence test/greenhouse; conditions: Table C, after three weeks
Method: as §1
(§4) Test plants which have a height of 5-15 cm are sprayed with the preparation of active compound in such a way as to apply the particular amounts of active compound desired per unit area. After three weeks, the degree of damage to the plants is rated in % damage in comparison to the development of the untreated control.
(§5) 0%=no action (like intreated control)

[10] = system: Wheat; experiment: Post-emergence test/greenhouse; conditions: Table C, after three weeks
Method: as §1, §4, §5

[11] = system: Chenopodium; experiment: Post-emergence test/greenhouse; conditions: Table C, after three weeks
Method: as §1, §4, §5

[12] = system: Maize; experiment: Post-emergence test/greenhouse; conditions: Table C, after three weeks
Method: as §1, §4, §5

[13] = system: Veronica; experiment: Post-emergence test/greenhouse; conditions: Table C, after three weeks
Method: as §1, §4, §5

[14] = system: Solanum; experiment: Post-emergence test/greenhouse; conditions: Table C, after three weeks
Method: as §1, §4, §5

[15] = system: Amaranthus; experiment: Post-emergence test/greenhouse; conditions: Table C, after three weeks
Method: as §1, §4, §5

Structure (SMILES)	degree of damage, Abuthilon ([9]; 15 g/ha) [%]	degree of damage, Wheat ([10]; 15 g/ha) [%]	degree of damage, Chenopodium ([11]; 15 g/ha) [%]	degree of damage, Maize ([12]; 15 g/ha) [%]	degree of damage, Veronica ([13]; 15 g/ha) [%]	degree of damage, Abuthilon ([1]; 60 g/ha) [%]	degree of damage, Wheat ([2]; 60 g/ha) [%]	degree of damage, Chenopodium ([3]; 60 g/ha) [%]	degree of damage, Maize ([4]; 60 g/ha) [%]	degree of damage, Solanum ([5]; 60 g/ha) [%]	degree of damage, Portulaca ([6]; 60 g/ha) [%]	degree of damage, Matricaria ([7]; 60 g/ha) [%]	degree of damage, Amaranthus ([8]; 60 g/ha) [%]	degree of damage, Abuthilon ([9]; 60 g/ha) [%]	degree of damage, Wheat ([10]; 60 g/ha) [%]	degree of damage, Chenopodium ([11]; 60 g/ha) [%]	degree of damage, Maize ([12]; 60 g/ha) [%]	degree of damage, Veronica ([13]; 60 g/ha) [%]	degree of damage, Solanum ([14]; 60 g/ha) [%]	degree of damage, Amaranthus ([15]; 60 g/ha) [%]	further results
CCS(=O)(=O)Nc1cc(-n2nc3n(c2=O)CCCC3)c(F)cc1C(N)=S [Example 1, 2-(2-fluoro-5-ethylsulphonylamino-4-thiocarbamoyl-phenyl)-5,6,7,8-tetrahydro-1,2,4-triazolo[4,3-a]pyridin-3(2H)-one]	100	10	95	50	100																degree of damage, Abuthilon ([1]; 125 g/ha): 100%; degree of damage, Wheat ([2]; 125 g/ha): 0%; degree of damage, Chenopodium ([3]; 125 g/ha): 100%; degree of damage, Maize ([4]; 125 g/ha): 0%; degree of damage, Solanum ([5]; 125 g/ha): 100%; degree of damage, Portulaca ([6]; 125 g/ha): 100%; degree of damage, Matricaria ([7]; 125 g/ha): 95%; degree of damage, Amaranthus ([8]; 125 g/ha): 100%; degree of damage, Solanum ([14]; 15 g/ha): 100%; degree of damage, Amaranthus ([15]; 15 g/ha): 95%
Cn1c(C(F)F)nn(-c2cc(F)c(C(N)=S)cc2F)c1=S [Example 8]						100	40	100	0	100	95	95	100	100	10	100	30	100	100	100	
CCS(=O)(=O)Nc1cc(-n2nc(C(F)F)n(C)c2=O)c(F)cc1C(N)=S [Example 9]						100	0	100	0	100	90	95	100	100	10	100	30	100	100	100	
CCOc1cc(-n2nc3n(c2=O)CCCC3)c(F)cc1C(N)=S [Example 12]						70	20	100	0	70	95	95	70								degree of damage, Abuthilon ([9]; 8 g/ha): 100%; degree of damage, Wheat ([10]; 8 g/ha): 10%; degree of damage, Chenopodium ([11]; 8 g/ha): 95%; degree of damage, Maize ([12]; 8 g/ha): 30%; degree of damage, Veronica ([13]; 8 g/ha): 100%; degree of damage, Solanum ([14]; 8 g/ha): 100%; degree of damage, Amaranthus ([15]; 8 g/ha): 100%
CCS(=O)(=O)Nc1cc(-n2nc(C3CC3)n(C)c2=O)c(F)cc1C(N)=S [Example 13]	95	0	80	30	90	100	0	100	0	100	90	70	100								degree of damage, Solanum ([14]; 15 g/ha): 100%; degree of damage, Amaranthus ([15]; 15 g/ha): 100%
CCn1c(C(F)(F)F)nn(-c2cc(N(C)S(=O)(=O)CC)c(C(N)=S)cc2F)c1=O [Example 16]						95	10	100	0	80	80	90	20	95	20	100	60	100	100	100	
